The values that follow are results of earlier work, collected in patent US11464838B2, “Optimized cancer stem cell vaccines” (COLORADO STATE UNIVERSITY RESEARCH FOUNDATION, priority 2015, dated 2022).

For the data set the following is noted: in vivo.

Turning to `CCCCc1ncc(/C=C(\Cc2cccs2)C(=O)O)n1Cc1ccc(C(=O)O)cc1` [Eprosartan], the Bioavailability is recorded as 13% and the “Biological Half-Life” value is reported as 5 hours.
Turning to `CCOc1nc2cccc(C(=O)O)c2n1Cc1ccc(-c2ccccc2-c2noc(=O)[nH]2)cc1` [Azilsartan], the Bioavailability is 60% and the “Biological Half-Life” value is on record as 11 hours.
For the compound `CCCCC1=NC2(CCCC2)C(=O)N1Cc1ccc(-c2ccccc2-c2nnn[nH]2)cc1` [Irbesartan], the Bioavailability was 70%.
As for `CCCCc1nc(Cl)c(CO)n1Cc1ccc(-c2ccccc2-c2nn[nH]n2)cc1` [Losartan], the “Biological Half-Life” value is reported as 2 hours.
